The target in this test is T1, human B1 (Homo sapiens, UniProt P46663).
T1 construct: host or cells: CHO-K1
T1 sequence (P46663 1-353): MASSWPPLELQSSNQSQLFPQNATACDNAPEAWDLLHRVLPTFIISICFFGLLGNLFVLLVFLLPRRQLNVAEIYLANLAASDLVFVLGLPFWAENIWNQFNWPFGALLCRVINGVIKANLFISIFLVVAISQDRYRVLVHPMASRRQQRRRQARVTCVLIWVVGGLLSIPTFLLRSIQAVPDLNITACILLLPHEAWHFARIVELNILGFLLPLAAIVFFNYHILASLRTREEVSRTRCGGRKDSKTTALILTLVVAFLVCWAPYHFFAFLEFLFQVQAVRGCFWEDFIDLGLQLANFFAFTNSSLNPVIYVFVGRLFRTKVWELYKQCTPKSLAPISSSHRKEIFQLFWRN
In words: Calcium flux assay for Bradykinin B1 antagonist, CHO-K1 cell line expressing human B1. The test is classed as cell-based. To be noted: CHO-K1 cells expressing human B1, agonist Lys-(Des-Arg)-Bradykinin, read-out: Potency (IC50 value against human B1). In short, it runs like this: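 Inhibition of B1 agonist-evoked intracellular Ca2+ rise was followed by continuous fluorescence at 538 nm, with integrated, background-normalized signals plotted versus log compound concentration. Test compounds (eight 10-fold dilutions, triplicate, 1% DMSO final) were added 30 min at 25° C beforehand to Fluo-4AM-loaded human B1 CHO-K1 cells in pH 7.4 assay buffer.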

pIC50: −log10 of the molar value. Counter-ions that a name gives are not always drawn. Bounds are passed on as bounds.

Turning to `COc1cc(C)c(S(=O)(=O)N(Cc2nnc(C(=O)N3CCN(CCCN4CCCC4)CC3)o2)C2CC2)c(C)c1` [Ex 273, N-Cyclopropyl-4-methoxy-2,6-dimethyl-N-[(5-{[4-(3-pyrrolidin-1-ylpropyl)piperazin-1-yl]carbonyl}-1,3,4-oxadiazol-2-yl)methyl]benzenesulfonamide], the pIC50 was greater than 8.00.

As to `COc1cc(C)c(S(=O)(=O)N(Cc2nnc(C(=O)N3CCC(CCN4CCCC4)CC3)o2)C2CC2)c(C)c1` [Ex 274, N-Cyclopropyl-4-methoxy-2,6-dimethyl-N-[(5-{[4-(2-pyrrolidin-1-ylethyl)piperidin-1-yl]carbonyl}-1,3,4-oxadiazol-2-yl)methyl]benzenesulfonamide], the pIC50 was greater than 8.00.

Take `COc1cc(C)c(S(=O)(=O)N(Cc2nnc(C(=O)N3CCN(CC4CCCN(C)C4)CC3)o2)C2CC2)c(C)c1` (stereo not shown) [Ex 275, N-Cyclopropyl-4-methoxy-2,6-dimethyl-N-{[5-({4-[(1-methylpiperidin-3-yl)methyl]piperazin-1-yl}carbonyl)-1,3,4-oxadiazol-2-yl]methyl}benzenesulfonamide]: the negative-log IC50 (pIC50) is 7.00 to 8.00.

As to `COc1cc(C)c(S(=O)(=O)N(Cc2nnc(C(=O)N3CCN(CCCN(C)C)CC3)o2)C2CC2)c(C)c1` [Ex 276, N-Cyclopropyl-N-{[5-({4-[3-(dimethylamino)propyl]piperazin-1-yl}carbonyl)-1,3,4-oxadiazol-2-yl]methyl}-4-methoxy-2,6-dimethylbenzenesulfonamide], the pIC50 is 7.00 to 8.00.

On to `COc1cc(C)c(S(=O)(=O)N(Cc2nnc(C(=O)N3CCN(CCN4CCCC4)CC3)o2)C2CC2)c(C)c1` [Ex 277, N-Cyclopropyl-4-methoxy-2,6-dimethyl-N-[(5-{[4-(2-pyrrolidin-1-ylethyl)piperazin-1-yl]carbonyl}-1,3,4-oxadiazol-2-yl)methyl]benzenesulfonamide], for which the pIC50 is 7.00 to 8.00.

For `COc1cc(C)c(S(=O)(=O)N(C)Cc2nnc(C(=O)N3CCN(CC4CCCN(C)C4)CC3)o2)c(C)c1` (stereo not shown) [Ex 278, 4-Methoxy-N,2,6-trimethyl-N-{[5-({4-[(1-methylpiperidin-3-yl)methyl]piperazin-1-yl}carbonyl)-1,3,4-oxadiazol-2-yl]methyl}benzenesulfonamide], the pIC50 was 6.00 to 7.00.

Turning to `COc1cc(C)c(S(=O)(=O)N(C)Cc2nnc(C(=O)N3CCN(CCCN(C)C)CC3)o2)c(C)c1` [Ex 279, N-{[5-({4-[3-(Dimethylamino)propyl]piperazin-1-yl}carbonyl)-1,3,4-oxadiazol-2-yl]methyl}-4-methoxy-N,2,6-trimethylbenzenesulfonamide], the negative-log IC50 (pIC50) is 7.00 to 8.00.

As for `COc1cc(C)c(S(=O)(=O)N(C)Cc2nnc(C(=O)N3CCC(CCN4CCCC4)CC3)o2)c(C)c1` [Ex 280, 4-Methoxy-N,2,6-trimethyl-N-[(5-{[4-(2-pyrrolidin-1-ylethyl)piperidin-1-yl]carbonyl}-1,3,4-oxadiazol-2-yl)methyl]benzenesulfonamide], the negative-log IC50 (pIC50) is 7.00 to 8.00.

`COc1cc(C)c(S(=O)(=O)N(Cc2nnc(C(=O)N(C)Cc3ccc(CN4CCCC4)cc3)o2)C2CC2)c(C)c1` [Ex 281, 5-({Cyclopropyl[(4-methoxy-2,6-dimethylphenyl)sulfonyl]amino}methyl)-N-methyl-N-[4-(pyrrolidin-1-ylmethyl)benzyl]-1,3,4-oxadiazole-2-carboxamide]: the negative logarithm of the IC50 (pIC50) is greater than 8.00.

Regarding `COc1cc(C)c(S(=O)(=O)N(C)Cc2nnc(C(=O)N(C)Cc3ccc(CN4CCC(OC)C4)cc3)o2)c(C)c1` (stereo not shown) [Ex 282, 5-({[(4-Methoxy-2,6-dimethylphenyl)sulfonyl](methyl)amino}methyl)-N-{4-[(3-methoxypyrrolidin-1-yl)methyl]benzyl}-N-methyl-1,3,4-oxadiazole-2-carboxamide], the pIC50 was 6.00 to 7.00.

Take `COc1cc(C)c(S(=O)(=O)N(C)Cc2nnc(C(=O)N(C)Cc3ccc(CN4CCC(OC)CC4)cc3)o2)c(C)c1` [Ex 283, 5-({[(4-Methoxy-2,6-dimethylphenyl)sulfonyl](methyl)amino}methyl)-N-{4-[(4-methoxypiperidin-1-yl)methyl]benzyl}-N-methyl-1,3,4-oxadiazole-2-carboxamide]: the negative logarithm of the IC50 (pIC50) was 7.00 to 8.00.

Regarding `COc1cc(C)c(S(=O)(=O)N(C)Cc2nnc(C(=O)N(C)Cc3ccc(CN4CCCC(OC)C4)cc3)o2)c(C)c1` (stereo not shown) [Ex 284, 5-({[(4-Methoxy-2,6-dimethylphenyl)sulfonyl](methyl)amino}methyl)-N-{4-[(3-methoxypiperidin-1-yl)methyl]benzyl}-N-methyl-1,3,4-oxadiazole-2-carboxamide], the pIC50 was 6.00 to 7.00.

`COc1cc(C)c(S(=O)(=O)N(C)Cc2nnc(C(=O)N(C)Cc3ccc(CN4CCC(N(C)C)C4)cc3)o2)c(C)c1` (stereo not shown) [Ex 285, N-(4-{[3-(Dimethylamino)pyrrolidin-1-yl]methyl}benzyl)-5-({[(4-methoxy-2,6-dimethylphenyl)sulfonyl](methyl)amino}methyl)-N-methyl-1,3,4-oxadiazole-2-carboxamide]: the pIC50 was 6.00 to 7.00.

For `COc1cc(C)c(S(=O)(=O)N(C)Cc2nnc(C(=O)N(C)Cc3nc(CN4CCCC4)cs3)o2)c(C)c1` [Ex 286, 5-({[(4-Methoxy-2,6-dimethylphenyl)sulfonyl](methyl)amino}methyl)-N-methyl-N-{[4-(pyrrolidin-1-ylmethyl)-1,3-thiazol-2-yl]methyl}-1,3,4-oxadiazole-2-carboxamide], the pIC50 is 6.00 to 7.00.

Regarding `COc1cc(C)c(S(=O)(=O)N(C)Cc2nnc(C(=O)N(C)Cc3ccc(CN4CC(OC)C4)cc3)o2)c(C)c1` [Ex 287, N-{4-[(3-Methoxyazetidin-1-yl)methyl]benzyl}-5-({[(4-methoxy-2,6-dimethylphenyl)sulfonyl](methyl)amino}methyl)-N-methyl-1,3,4-oxadiazole-2-carboxamide], the pIC50 was 6.00 to 7.00.

`COc1cc(C)c(S(=O)(=O)N(C)Cc2nnc(C(=O)N(C)Cc3ccc4c(c3)CN(C)C4)o2)c(C)c1` [Ex 288, 5-({[(4-Methoxy-2,6-dimethylphenyl)sulfonyl](methyl)amino}methyl)-N-methyl-N-[(2-methyl-2,3-dihydro-1H-isoindol-5-yl)methyl]-1,3,4-oxadiazole-2-carboxamide]: the pIC50 is 6.00 to 7.00.

Take `COc1cc(C)c(S(=O)(=O)N(C)Cc2nnc(C(=O)N(C)Cc3cccc(CN4CCCC4)c3)o2)c(C)c1` [Ex 289, 5-({[(4-Methoxy-2,6-dimethylphenyl)sulfonyl](methyl)amino}methyl)-N-methyl-N-[3-(pyrrolidin-1-ylmethyl)benzyl]-1,3,4-oxadiazole-2-carboxamide]: the pIC50 is 7.00 to 8.00.

Consider `[2H]C([2H])([2H])N(Cc1nnc(C(=O)N2CCN(CC3CCN(C)CC3)CC2)o1)S(=O)(=O)c1c(C)cc(OC)cc1C` [Ex 291, 4-Methoxy-2,6-dimethyl-N-(^2H3)methyl-N-{[5-({4-[(1-methylpiperidin-4-yl)methyl]piperazin-1-yl}carbonyl)-1,3,4-oxadiazol-2-yl]methyl}benzenesulfonamide trifluoroacetate], for which the pIC50 was 6.00 to 7.00.

On to `COc1cc(C)c(S(=O)(=O)N(C)Cc2nnc(C(=O)N3CCN(Cc4c[nH]c(C)n4)CC3)o2)c(C)c1` [Ex 292, 4-Methoxy-N,2,6-trimethyl-N-{[5-({4-[(2-methyl-1H-imidazol-4-yl)methyl]piperazin-1-yl}carbonyl)-1,3,4-oxadiazol-2-yl]methyl}benzenesulfonamide], for which the pIC50 was greater than 8.00.

Source of the values: patent publication US8623859B2, “Bradykinin B1 antagonists” (Evotec AG, priority 2008, dated 2014).
